# Publication PMC3703287, “Analgesic effect of a mixed T-type channel inhibitor/CB2 receptor agonist” (Molecular Pain, 2013)
# Key:
# [1] = target: T1, human CB2 receptor (Homo sapiens, UniProt P34972); test: [3H]CP55940 radioligand competition, membranes of HEK293 cells expressing human CB2; low-efficacy agonist in GTPγ[…] assay ([…] at […]); type: binding
# T1 construct: gene CNR2
# [2] = target: T2, CaV3.2 (Homo sapiens, UniProt O95180); test: whole-cell patch clamp, tsA-201 cells transiently expressing human CaV3.[…]; type: cell-based
# T2 construct: gene CACNA1H; α1 subunit
# T2 sequence (O95180 whole entry): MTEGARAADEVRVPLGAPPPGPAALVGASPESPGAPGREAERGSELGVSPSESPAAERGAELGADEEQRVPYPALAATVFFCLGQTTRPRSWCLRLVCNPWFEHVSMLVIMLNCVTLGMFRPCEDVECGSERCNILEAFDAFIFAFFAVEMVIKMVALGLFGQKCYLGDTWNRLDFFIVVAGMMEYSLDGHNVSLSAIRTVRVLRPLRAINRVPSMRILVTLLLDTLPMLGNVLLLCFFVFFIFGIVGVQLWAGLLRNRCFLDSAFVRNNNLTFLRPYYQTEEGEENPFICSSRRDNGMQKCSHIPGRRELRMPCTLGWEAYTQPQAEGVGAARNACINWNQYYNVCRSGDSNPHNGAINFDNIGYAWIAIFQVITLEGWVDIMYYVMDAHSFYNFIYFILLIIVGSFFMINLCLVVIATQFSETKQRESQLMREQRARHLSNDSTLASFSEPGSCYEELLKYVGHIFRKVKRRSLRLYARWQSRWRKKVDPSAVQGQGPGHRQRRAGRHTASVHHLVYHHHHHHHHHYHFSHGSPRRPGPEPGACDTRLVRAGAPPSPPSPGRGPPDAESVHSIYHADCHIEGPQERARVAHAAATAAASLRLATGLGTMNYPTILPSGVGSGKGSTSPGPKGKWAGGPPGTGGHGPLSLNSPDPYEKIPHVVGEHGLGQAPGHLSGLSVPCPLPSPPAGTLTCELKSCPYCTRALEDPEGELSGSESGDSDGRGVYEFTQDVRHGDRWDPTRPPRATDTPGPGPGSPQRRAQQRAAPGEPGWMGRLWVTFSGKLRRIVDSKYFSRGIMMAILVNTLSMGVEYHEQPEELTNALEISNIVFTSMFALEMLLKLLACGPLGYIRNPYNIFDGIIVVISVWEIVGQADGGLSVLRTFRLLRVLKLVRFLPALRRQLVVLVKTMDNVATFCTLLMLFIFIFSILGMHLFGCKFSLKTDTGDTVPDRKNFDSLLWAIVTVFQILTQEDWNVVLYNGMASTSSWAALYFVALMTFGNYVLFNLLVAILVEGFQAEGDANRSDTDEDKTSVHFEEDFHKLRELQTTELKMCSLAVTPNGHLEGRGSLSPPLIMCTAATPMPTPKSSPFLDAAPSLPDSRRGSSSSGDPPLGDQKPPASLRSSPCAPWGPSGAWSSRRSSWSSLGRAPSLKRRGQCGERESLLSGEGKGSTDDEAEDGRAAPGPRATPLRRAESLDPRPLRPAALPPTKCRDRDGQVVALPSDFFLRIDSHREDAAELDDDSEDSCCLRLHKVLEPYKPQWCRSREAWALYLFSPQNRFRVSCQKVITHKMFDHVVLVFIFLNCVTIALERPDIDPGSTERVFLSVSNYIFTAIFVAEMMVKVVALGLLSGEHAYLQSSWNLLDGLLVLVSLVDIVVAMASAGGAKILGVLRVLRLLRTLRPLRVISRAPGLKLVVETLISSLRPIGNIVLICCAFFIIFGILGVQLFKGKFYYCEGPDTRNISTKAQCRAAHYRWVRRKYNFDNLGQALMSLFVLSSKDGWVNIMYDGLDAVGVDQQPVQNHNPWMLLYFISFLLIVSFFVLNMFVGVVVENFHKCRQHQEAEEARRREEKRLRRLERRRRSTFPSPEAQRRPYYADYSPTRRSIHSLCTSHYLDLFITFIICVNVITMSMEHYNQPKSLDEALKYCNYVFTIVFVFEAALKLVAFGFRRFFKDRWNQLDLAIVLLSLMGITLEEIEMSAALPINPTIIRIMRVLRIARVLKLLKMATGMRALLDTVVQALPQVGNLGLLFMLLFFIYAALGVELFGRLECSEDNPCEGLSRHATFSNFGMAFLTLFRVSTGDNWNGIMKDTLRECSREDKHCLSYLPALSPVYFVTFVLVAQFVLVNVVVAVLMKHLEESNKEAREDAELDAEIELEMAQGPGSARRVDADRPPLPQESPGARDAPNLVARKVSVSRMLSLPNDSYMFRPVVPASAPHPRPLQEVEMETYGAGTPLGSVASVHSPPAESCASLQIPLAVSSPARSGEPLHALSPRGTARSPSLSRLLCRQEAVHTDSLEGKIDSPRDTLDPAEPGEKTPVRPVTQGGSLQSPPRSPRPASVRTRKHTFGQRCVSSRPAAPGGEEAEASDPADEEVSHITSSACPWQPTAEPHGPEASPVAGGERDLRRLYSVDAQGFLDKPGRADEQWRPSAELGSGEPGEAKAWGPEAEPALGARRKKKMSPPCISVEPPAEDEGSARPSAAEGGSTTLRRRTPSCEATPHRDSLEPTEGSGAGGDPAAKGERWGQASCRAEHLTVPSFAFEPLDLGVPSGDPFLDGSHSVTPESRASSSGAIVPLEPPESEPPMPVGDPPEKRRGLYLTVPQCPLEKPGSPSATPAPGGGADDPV
# [3] = target: T3, CaV3.1 (Homo sapiens, UniProt O43497); test: whole-cell patch clamp, […] NMP-181, tsA-201 cells transiently expressing human CaV3.[…]; type: cell-based
# T3 construct: gene CACNA1G; α1 subunit
# T3 sequence (O43497 whole entry): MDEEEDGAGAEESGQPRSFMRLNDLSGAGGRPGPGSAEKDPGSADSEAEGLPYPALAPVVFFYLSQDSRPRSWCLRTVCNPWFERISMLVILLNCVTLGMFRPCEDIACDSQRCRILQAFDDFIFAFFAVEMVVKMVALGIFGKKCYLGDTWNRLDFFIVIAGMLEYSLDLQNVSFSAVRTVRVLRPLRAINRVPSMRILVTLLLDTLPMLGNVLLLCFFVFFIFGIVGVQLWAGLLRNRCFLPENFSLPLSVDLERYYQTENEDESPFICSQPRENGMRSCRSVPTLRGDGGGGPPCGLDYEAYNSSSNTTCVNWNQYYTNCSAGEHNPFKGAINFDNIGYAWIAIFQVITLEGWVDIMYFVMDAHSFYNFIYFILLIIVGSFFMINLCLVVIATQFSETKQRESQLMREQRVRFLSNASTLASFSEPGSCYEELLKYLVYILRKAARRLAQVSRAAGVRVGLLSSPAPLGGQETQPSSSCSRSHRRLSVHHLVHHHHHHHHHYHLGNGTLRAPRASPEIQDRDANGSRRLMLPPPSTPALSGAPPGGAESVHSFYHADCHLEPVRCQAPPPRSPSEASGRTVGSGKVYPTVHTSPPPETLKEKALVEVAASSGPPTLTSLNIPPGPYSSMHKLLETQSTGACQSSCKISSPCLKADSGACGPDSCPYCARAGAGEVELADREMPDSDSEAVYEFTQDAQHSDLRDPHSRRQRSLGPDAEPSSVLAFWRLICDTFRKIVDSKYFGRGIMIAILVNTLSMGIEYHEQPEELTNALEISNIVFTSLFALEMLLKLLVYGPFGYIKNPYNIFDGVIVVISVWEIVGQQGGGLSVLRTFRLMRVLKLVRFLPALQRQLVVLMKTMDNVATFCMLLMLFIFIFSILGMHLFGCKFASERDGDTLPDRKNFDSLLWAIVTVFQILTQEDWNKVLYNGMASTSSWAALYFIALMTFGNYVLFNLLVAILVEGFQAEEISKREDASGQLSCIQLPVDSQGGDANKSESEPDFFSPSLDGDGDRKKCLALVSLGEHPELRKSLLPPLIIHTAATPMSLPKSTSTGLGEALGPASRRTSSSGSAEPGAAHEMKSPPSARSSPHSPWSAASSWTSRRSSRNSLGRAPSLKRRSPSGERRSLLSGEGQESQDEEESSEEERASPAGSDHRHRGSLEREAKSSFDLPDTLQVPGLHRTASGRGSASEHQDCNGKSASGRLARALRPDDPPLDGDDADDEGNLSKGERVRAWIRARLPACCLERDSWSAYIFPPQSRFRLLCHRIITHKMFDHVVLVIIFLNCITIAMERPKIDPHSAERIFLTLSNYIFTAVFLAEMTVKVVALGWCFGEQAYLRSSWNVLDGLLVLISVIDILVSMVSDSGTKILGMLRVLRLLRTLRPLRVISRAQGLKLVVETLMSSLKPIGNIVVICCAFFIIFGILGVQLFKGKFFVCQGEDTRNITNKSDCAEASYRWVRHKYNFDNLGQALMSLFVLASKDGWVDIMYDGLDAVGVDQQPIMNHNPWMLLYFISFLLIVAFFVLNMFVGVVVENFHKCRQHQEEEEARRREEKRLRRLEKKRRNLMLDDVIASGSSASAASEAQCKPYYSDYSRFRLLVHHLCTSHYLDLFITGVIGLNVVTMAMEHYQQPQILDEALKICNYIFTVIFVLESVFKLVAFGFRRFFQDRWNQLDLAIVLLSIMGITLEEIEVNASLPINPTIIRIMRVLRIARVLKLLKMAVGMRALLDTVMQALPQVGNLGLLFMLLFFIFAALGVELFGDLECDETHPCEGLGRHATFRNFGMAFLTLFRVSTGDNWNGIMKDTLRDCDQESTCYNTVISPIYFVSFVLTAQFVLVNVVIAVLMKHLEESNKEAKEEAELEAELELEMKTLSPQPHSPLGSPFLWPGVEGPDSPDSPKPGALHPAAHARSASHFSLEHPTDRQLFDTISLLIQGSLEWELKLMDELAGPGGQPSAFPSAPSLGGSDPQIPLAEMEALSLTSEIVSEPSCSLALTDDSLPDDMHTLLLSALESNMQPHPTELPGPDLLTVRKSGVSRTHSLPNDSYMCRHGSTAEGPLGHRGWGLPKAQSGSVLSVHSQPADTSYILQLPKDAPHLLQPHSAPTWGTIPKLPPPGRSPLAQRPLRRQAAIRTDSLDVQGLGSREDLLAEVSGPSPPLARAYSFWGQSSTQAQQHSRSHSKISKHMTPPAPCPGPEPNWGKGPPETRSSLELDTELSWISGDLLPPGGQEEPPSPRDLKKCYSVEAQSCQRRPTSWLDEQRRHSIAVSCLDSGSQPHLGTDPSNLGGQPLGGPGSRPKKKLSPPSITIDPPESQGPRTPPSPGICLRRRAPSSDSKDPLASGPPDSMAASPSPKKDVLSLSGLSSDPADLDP
# T1 sequence (P34972 whole entry): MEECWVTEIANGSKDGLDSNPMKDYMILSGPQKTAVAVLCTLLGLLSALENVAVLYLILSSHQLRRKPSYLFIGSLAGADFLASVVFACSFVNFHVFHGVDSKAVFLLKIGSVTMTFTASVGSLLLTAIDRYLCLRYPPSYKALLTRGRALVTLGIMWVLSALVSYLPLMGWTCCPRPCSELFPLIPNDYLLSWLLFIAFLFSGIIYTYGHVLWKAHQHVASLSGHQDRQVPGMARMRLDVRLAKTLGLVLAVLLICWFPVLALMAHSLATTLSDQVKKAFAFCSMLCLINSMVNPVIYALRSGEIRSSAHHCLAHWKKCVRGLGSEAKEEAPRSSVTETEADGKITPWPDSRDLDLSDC
smiles,measurement,setting,value
CCCCCn1c2ccccc2c2cc(C(=O)OCCN(C)C)ccc21 [NMP-181],Ki,[1],123 ± 28 nM
same,IC50,[2],4.6 µM
same,"whole-cell patch clamp, 10 μM NMP-181, tsA-201 cells transiently expressing huma",[3],the degree of inhibition was similar for all three CaV3 isoforms
